ChEMBL document CHEMBL3997821, “Design, synthesis and evaluation of novel pyrazolo-pyrimido[4,5-d]pyrimidine derivatives as potent antibacterial and biofilm inhibitors” (Bioorg Med Chem Lett, 2017)
Converted amounts (≈) assume the structure as drawn. The source made the active and inactive calls. The calls are words filed in the database; no cut-off is given here.

Assays:
Assay type in all cases: functional
[1] = tested on: Micrococcus luteus; test: Bactericidal activity against Micrococcus luteus MTCC 2470 after 24 hrs by serial dilution method; conditions: MTCC 2470, 24 h
[2] = tested on: Staphylococcus aureus; test: Antibiofilm activity against Staphylococcus aureus MLS16 MTCC 2940 after 24 hrs by crystal violet staining based assay; conditions: MLS16 MTCC 2940, 24 h
[3] = tested on: Micrococcus luteus; test: Ratio of MBC to MIC for Micrococcus luteus MTCC 2470
[4] = tested on: Staphylococcus aureus; test: Bactericidal activity against Staphylococcus aureus MTCC 96 after 24 hrs by serial dilution method; conditions: MTCC 96, 24 h
[5] = tested on: Escherichia coli; test: Antibacterial activity against Escherichia coli MTCC 739 after 24 hrs by well diffusion method; conditions: MTCC 739, 24 h
[6] = tested on: Staphylococcus aureus; test: Antibacterial activity against Staphylococcus aureus MLS16 MTCC 2940 after 24 hrs by well diffusion method; conditions: MLS16 MTCC 2940, 24 h
[7] = tested on: Staphylococcus aureus; test: Ratio of MBC to MIC for Staphylococcus aureus MLS16 MTCC 2940
[8] = tested on: Pseudomonas aeruginosa; test: Antibacterial activity against Pseudomonas aeruginosa MTCC 2453 after 24 hrs by well diffusion method; conditions: MTCC 2453, 24 h
[9] = tested on: Micrococcus luteus; test: Antibiofilm activity against Micrococcus luteus MTCC 2470 after 24 hrs by crystal violet staining based assay; conditions: MTCC 2470, 24 h
[10] = tested on: Staphylococcus aureus; test: Ratio of MBC to MIC for Staphylococcus aureus MTCC 96
[11] = tested on: Staphylococcus aureus; test: Bactericidal activity against Staphylococcus aureus MLS16 MTCC 2940 after 24 hrs by serial dilution method; conditions: MLS16 MTCC 2940, 24 h
[12] = tested on: Micrococcus luteus; test: Antibacterial activity against Micrococcus luteus MTCC 2470 after 24 hrs by well diffusion method; conditions: MTCC 2470, 24 h
[13] = tested on: Bacillus subtilis; test: Ratio of MBC to MIC for Bacillus subtilis MTCC 121
[14] = tested on: Bacillus subtilis; test: Antibiofilm activity against Bacillus subtilis MTCC 121 after 24 hrs by crystal violet staining based assay; conditions: MTCC 121, 24 h
[15] = tested on: Raoultella planticola; test: Antibacterial activity against Klebsiella planticola MTCC 530 after 24 hrs by well diffusion method; conditions: MTCC 530, 24 h
[16] = tested on: Bacillus subtilis; test: Antibacterial activity against Bacillus subtilis MTCC 121 after 24 hrs by well diffusion method; conditions: MTCC 121, 24 h
[17] = tested on: Bacillus subtilis; test: Bactericidal activity against Bacillus subtilis MTCC 121 after 24 hrs by serial dilution method; conditions: MTCC 121, 24 h
[18] = tested on: Staphylococcus aureus; test: Antibiofilm activity against Staphylococcus aureus MTCC 96 after 24 hrs by crystal violet staining based assay; conditions: MTCC 96, 24 h
[19] = tested on: Staphylococcus aureus; test: Antibacterial activity against Staphylococcus aureus MTCC 96 after 24 hrs by well diffusion method; conditions: MTCC 96, 24 h
[20] = tested on: Micrococcus luteus; test: Induction of ROS generation in Micrococcus luteus MTCC 2470 mature biofilms at up to 4 ug/ml after 24 hrs by DCFH-DA staining based fluorometric assay

Row | MIC [5] [mg/L] | MIC [6] [mg/L] | MIC [8] [mg/L] | IC50 [9] [mg/L] | MIC [12] [mg/L] | IC50 [14] [mg/L] | MIC [16] [mg/L] | IC50 [18] [mg/L] | MIC [19] [mg/L] | Compound | MBC [1] [mg/L] | IC50 [2] [mg/L] | Ratio [3] | MBC [4] [mg/L] | Ratio [7] | Ratio [10] | MBC [11] [mg/L] | Ratio [13] | MIC [15] [mg/L] | MBC [17] [mg/L] | Activity [20]
1 | > 125 | 7.8 (≈ 14.2 µM) | > 125 | 10.1 (≈ 18.4 µM) | 15.6 (≈ 28.5 µM) | 18.3 (≈ 33.4 µM) | 7.8 (≈ 14.2 µM) | 12.6 (≈ 23 µM) | 15.6 (≈ 28.5 µM) | Cc1ccc(N2C=Nc3c(c(=O)n(C)c(=O)n3C)C2c2cn(-c3ccccc3)nc2-c2ccc([N+](=O)[O-])cc2)cc1 (centres undefined) | 15.6 (≈ 28.5 µM) | 9.5 (≈ 17.3 µM) | 2 | 31.2 (≈ 57 µM) | 2 | 2 | 15.6 (≈ 28.5 µM) | 2 | > 125 | 31.2 (≈ 57 µM) | 
2 | > 125 | > 125 | > 125 |  | > 125 |  | > 125 |  | > 125 | Cn1c2c(c(=O)n(C)c1=O)C(c1cn(-c3ccccc3)nc1-c1ccc([N+](=O)[O-])cc1)N(c1ccccc1)C=N2 (centres undefined) |  |  |  |  |  |  |  |  | > 125 |  | 
3 | > 125 | > 125 | > 125 |  | > 125 |  | > 125 |  | > 125 | Cc1ccc(N2C=Nc3c(c(=O)n(C)c(=O)n3C)C2c2cn(-c3ccccc3)nc2-c2ccccc2)cc1 (centres undefined) |  |  |  |  |  |  |  |  | > 125 |  | 
4 | > 125 | > 125 | > 125 |  | > 125 |  | > 125 |  | > 125 | COc1ccc(N2C=Nc3c(c(=O)n(C)c(=O)n3C)C2c2cn(-c3ccccc3)nc2-c2ccc(C)cc2)cc1 (centres undefined) | 15.6 (≈ 29.3 µM) |  |  | 62.5 (≈ 117 µM) |  |  | 31.2 (≈ 58.6 µM) |  | > 125 | 62.5 (≈ 117 µM) | 
5 | > 125 | > 125 | > 125 |  | > 125 |  | > 125 |  | > 125 | Cc1ccc(-c2nn(-c3ccccc3)cc2C2c3c(n(C)c(=O)n(C)c3=O)N=CN2c2ccccc2)cc1 (centres undefined) |  |  |  |  |  |  |  |  | > 125 |  | 
6 | > 125 | 15.6 (≈ 30.7 µM) | > 125 |  | 15.6 (≈ 30.7 µM) |  | 31.2 (≈ 61.3 µM) |  | 15.6 (≈ 30.7 µM) | Cc1ccc(N2C=Nc3c(c(=O)n(C)c(=O)n3C)C2c2cn(-c3ccccc3)nc2-c2cccs2)cc1 (centres undefined) | 31.2 (≈ 61.3 µM) |  |  | 31.2 (≈ 61.3 µM) |  |  | 31.2 (≈ 61.3 µM) |  | > 125 | 31.2 (≈ 61.3 µM) | 

More lines, now with the values behind:

Row | Compound | MIC [5] [mg/L] | MIC [6] [mg/L] | MIC [8] [mg/L] | IC50 [9] [mg/L] | MIC [12] [mg/L] | IC50 [14] [mg/L] | MIC [16] [mg/L] | IC50 [18] [mg/L] | MIC [19] [mg/L] | MBC [1] [mg/L] | IC50 [2] [mg/L] | Ratio [3] | MBC [4] [mg/L] | Ratio [7] | Ratio [10] | MBC [11] [mg/L] | Ratio [13] | MIC [15] [mg/L] | MBC [17] [mg/L] | Activity [20]
7 | Cn1c2c(c(=O)n(C)c1=O)C(c1cn(-c3ccccc3)nc1-c1cccs1)N(c1cccc([N+](=O)[O-])c1)C=N2 (centres undefined) | > 125 | > 125 | > 125 |  | > 125 |  | > 125 |  | > 125 |  |  |  |  |  |  |  |  | > 125 |  | 
8 | Cn1c2c(c(=O)n(C)c1=O)C(c1cn(-c3ccccc3)nc1-c1cccs1)N(c1ccccc1)C=N2 (centres undefined) | > 125 | 15.6 (≈ 31.5 µM) | > 125 |  | 15.6 (≈ 31.5 µM) |  | 31.2 (≈ 63.1 µM) |  | 31.2 (≈ 63.1 µM) |  |  |  |  |  |  |  |  | > 125 |  | 
9 | COc1ccc(N2C=Nc3c(c(=O)n(C)c(=O)n3C)C2c2cn(-c3ccccc3)nc2-c2ccc([N+](=O)[O-])cc2)cc1 (centres undefined) | > 125 | 31.2 (≈ 55.4 µM) | > 125 |  | 15.6 (≈ 27.7 µM) |  | 31.2 (≈ 55.4 µM) |  | 31.2 (≈ 55.4 µM) | 15.6 (≈ 27.7 µM) |  |  | 62.5 (≈ 111 µM) |  |  | 31.2 (≈ 55.4 µM) |  | > 125 | 31.2 (≈ 55.4 µM) | 
10 | COc1ccc(N2C=Nc3c(c(=O)n(C)c(=O)n3C)C2c2cn(-c3ccccc3)nc2-c2ccc(Cl)cc2)cc1 (centres undefined) | > 125 | 15.6 (≈ 28.2 µM) | > 125 |  | 7.8 (≈ 14.1 µM) |  | 31.2 (≈ 56.4 µM) |  | 15.6 (≈ 28.2 µM) | 15.6 (≈ 28.2 µM) |  |  | 31.2 (≈ 56.4 µM) | 2 |  | 15.6 (≈ 28.2 µM) | 2 | > 125 | 31.2 (≈ 56.4 µM) | 
11 | O=C(O)c1cn(C2CC2)c2cc(N3CCNCC3)c(F)cc2c1=O [CIPROFLOXACIN] | 0.9 (≈ 2.72 µM) | 0.9 (≈ 2.72 µM) | 0.9 (≈ 2.72 µM) |  | 0.9 (≈ 2.72 µM) |  | 0.9 (≈ 2.72 µM) |  | 0.9 (≈ 2.72 µM) | 1.9 (≈ 5.73 µM) | 0.4 (≈ 1.21 µM) |  | 1.9 (≈ 5.73 µM) |  |  | 0.9 (≈ 2.72 µM) |  | 0.9 (≈ 2.72 µM) | 0.9 (≈ 2.72 µM) | Active
12 | Cn1c2c(c(=O)n(C)c1=O)C(c1cn(-c3ccccc3)nc1-c1ccc([N+](=O)[O-])cc1)N(c1cccc([N+](=O)[O-])c1)C=N2 (centres undefined) | > 125 | > 125 | > 125 |  | 31.2 (≈ 53.9 µM) |  | > 125 |  | > 125 | 62.5 (≈ 108 µM) |  |  | > 125 |  |  | > 125 |  | > 125 | > 125 | 
